Patent EP0108147B1, “Use of a protoberberine alkaloid and composition containing same” (MAROKO, Peter R., priority 1982, dated 1983)

Assays:
Format in all cases: in vivo
dogs = assay: Myocardial oxygen consumption (MV02) and epicardial ST segment elevation experiments; conditions: for myocardial oxygen consumption and myocardial injury: dogs, varying dosages
Source text: These changes were due to lower. myocardial oxygen consumption during the occlusion with berberine treatment. […] This is quite an advanageous therapeutic combination of properties which further distinguish the compounds used in the invention from the conventional drugs.

Sprague-Daley rats = assay: Rat model of acute coronary artery occlusion, mortality; conditions: for antiarrhythmic control after coronary artery occlusion: rat, in vivo
Source text: Another series of experiments were done using the rat model of acute coronary artery occlusion. In these experiments the effect of berberine was examined on mortality. Thus, Sprague-Daley rats (Charles River) weighing over 300 grams were anesthetized with ether, their chest opened in the 5th left intercostal space their heart everted and the left main coronary occluded with a surgical stitch. Thereafter the heart was repositioned and the thorax closed with a purse string suture, as described in more detail by us previously (Maclean, Fishbein, M. C. Braunwald, E. and Maroco, P. R., Long Term Presentation of Ischemic Myocardium After Experimental Coronary Artery Occlusion. J. Clin. Inv. 61, pages 541-551, 1978 and also in Maclean, D., Fishbein, M. D., Maroko, P. R. and Braunwald, Hyaluronidase-Induced Reductions In Myocardial Infarct Size. Science, 194, pages 199-200 (1976)). The mortality in rats weighing over […] was greater than in smaller rats.
After finishing the surgical procedure, the rats were randomized into controls (injection of 5% dextrose in water) and berberine treated (1 mg/Kg intravenously as a bolus).

[1] = system: closed-chest barbiturate anesthetized dogs; assay: Endotoxic (LPS) shock in dogs
Description: Nineteen closed-chest barbiturate anesthetized with artificial respiration dogs were studied. All measurements were done by the technique described before LPS.
At this time, i.e., two hours and fifteen minutes after administration of LPS, 1000 ml of 5% of dextrose in water was administered to all dogs during the next forty-five minutes.
Urinary output during the second hour of shock (before berberine or placebo treatments) and the third hour of shock (when the dogs were treated with either berberine of placebo) were compared in each dog. This analysis is of crucial importance since it would indicate the restoration of effective organ perfusion which in the case of the kidneys results in urinary output.

closed-chest dogs = assay: Protocol TE: electrophysiologic properties in closed-chest dogs; conditions: for result when substituted in the electrophysiologic experiments: dog, in vivo
Description: Experiments were carried out to analyze the electrophysiologic properties of berberine (portocol TE). In this protocol closed-chest dogs were anesthetized with intravenous pentobarbital (30 mg/Kg). Electrode catheters were placed, under fluoroscopy, in the high right atrium, right venticle, and in the aorta near the non-coronary aortic cusp to record His bundle potential. In addition aortic pressure (Statham gauge) and surface ECG were obtained. All parameters were recorded on an Electronic for Medicine polygraph (Model DR 8), with a paper speed of 100 mm/sec. The recordings were obtained before berberine treatment and after five successive five minute infusions of 0.2 mg/Kg/min of berberine in each one of the dogs. At each one of these time intervals recordings were done with the "spontaneous" normal sinus rhythm and with atrial and ventricular extrastimuli were given during the normal sinus as well as during the pacing phases of the experiment to determine the refractory period of the artria, atrio-ventricular node and of the His-Purkinje system and ventricle. Moreover, sinus node recovery time was measured.

Mongrel dogs = assay: Protocol Z: continuous 35 minute infusion in anesthetized open-chest dogs, constant left ventricular pressure; conditions: for reduction of calculated peripheral resistance: 0.2 mg/Kg/min
Description: Mongrel dogs weighing between 15 and 25 kg were anesthetized with intravenous sodium thiamylal (20 mg/kg initially with additional doses given as needed). The dogs were intubated endotracheally, and respiration was maintained by a Harvard respirator. The chest was then opened in the fourth left intercostal space and the heart suspended temporarily in a pericardial cradle.
Aortic pressures were recorded through a polyethylene cannula introduced through the carotid artery (Statham P23 Db pressure transducer) and electrocardiogram (lead aVF) were recorded throughout the experiment on a polygraph (Gould Instruments). Another polyethylene cannula was placed in the left atrium for measurement of atrial pressure (Statham P23 Db pressure transducer). An electromagnetic flowmeter (Biotonix Laboratories) was placed around the ascending aorta and the aortic flow was recorded on a polygraph. Two catheters were inserted into the left ventricle through a femoral artery.
The first ("pigtail") served as a reference, while the second (Millar microtip transducer catheter) was connected through a Millar transducer (Millar Instruments, Houston, Texas) to the polygraph, where both left ventricular pressure curves were recorded simultaneously. The left ventricular end diastolic pressure was recorded separately through a Millar catheter. The first derivative of the left ventricular pressure (dP/dt) was obtained by electronic differentiation of the left ventricular pulse recorded through the Millar catheter.
A reservoir of blood was connected with the femoral artery in order to maintain constant left ventricular pressure during the experiment. In this protocol, similarly to protocol M, systemic arterial pressure was maintained constant in order to have accurate measurements of dP/dt which represent well left ventricular contractility when the systolic pressure is maintained constant. However, calculated total peripheral resistance will be higher (an underestimation of the fall). After stabilization of hemodynamics as reflected by continuously monitored parameters for 15 minutes, the substances to be studied were infused intravenously using a Harvard infusion pump. Registrations were made every 5 minutes at a paper speed of 200 mm/second, while all the parameters were recorded constantly at a speed of 2 mm/second. The dogs were randomly assigned to several groups: • Group a) Control - in these dogs a solution of 5% dextrose in water was infused in the same quantity as in the berberine treated animals (n = 7).
In all berberine, berberrubine coreximine and tetrahydropalmatine groiups the compounds were infused at constant rate for 35 minutes and the data analyzed at 5 minute intervals. • Group b) Berberine 0.7 mg/Kg/min (n = 10). • Group c) Berberine 0.2 mg/Kg/min (n = 7). • Group d) Berberine 0.02 mg/Kg/min (n = 7). • Group e) Berberrubine 0.2 mg/Kg/min (n = 7). • Group f) Tetrahydropalmatine 0.2 mg/Kg/min (n = 4). • Group g) Coreximine 0.2 mg/Kg/min (n = 8).
Therefore, group b, c and d were used to analyze the various effects of continuous infusion of berberine and its dose response and groups e and f and g used to examine the effects of these three other proberberines. Moreover, their effects were compared to the berberine treated dogs with the same dose (i.e. Group c).

[2] = five successive five minute infusions of 0.2 mg/Kg/min
[3] = 0.7 mg/Kg/min, after 35 minutes
[4] = 0.7 mg/Kg/min, over the control

Compound: COc1ccc2cc3[n+](cc2c1OC)CCc1cc2c(cc1-3)OCO2 [berberine]
- epicardial ST segment elevations (dogs; after coronary artery occlusion): did not change them
- myocardial injury (epicardial ST segment elevations) (dogs; consecutive occlusions, 0.2 mg/kg/min, vs control occlusion, pilot experiments): less myocardial injury
- myocardial oxygen consumption (dogs; dogs with acute left ventricular failure, effect greater than that of ouabain): significantly reduced
- myocardial oxygen consumption (dogs; dogs without coronary artery occlusion): reduction in myocardial oxygen consumption
- mycardial oxygen consumption (MV02) (dogs; non-failing heart, 0.02 mg/kg.min): did not change
- rats that died within the first fifteen minutes (Sprague-Daley rats; 1 mg/Kg intravenously as a bolus, controls seventeen out of twenty-four): six out of twenty- two
- systemic systolic arterial pressure ([1]; after 1000 ml of 5% dextrose in water, controls 107±5, before shock 136±10): 127±6 mmHg
- dP/dt higher than before shock ([1]; after dextrose): approximately 50%
- peak left ventricular dP/dt ([1]; after dextrose, before shock 2565±166): 3740 ± 305 mmHg/s
- cardiac arrhythmias or conduction defect ([1]; dog, in vivo): No cardiac arrhythmias or conduction defect was observed
- increase of urinary output from the second (pre-treatment) to the third (treatment) hour ([1]; first statement, control -51.7±32.9): 30.5 ± 32.9 mL/h
- increase of urinary output from the second (pre-treatment) to the third (treatment) hour ([1]; second statement): 30.5±14.3 mi
- minimal dose that results in an elevation of systemic systolic arterial pressure by at least 5 mmHg ([1]; two hours after LPS 5 mg): 0.053 ± 0.008 mg/kg/min
- peak left ventricular dP/dt ([1]; within fifteen minutes of treatment, control 1050±145): 2062±204 mmHg/s
- pulse pressure (systolic minus diastolic pressures) ([1]; within fifteen minutes of treatment, from 24±2): 32±2 mmHg
- systolic pressure ([1]; within fifteen minutes of treatment, placebo 50±6): 66±4 mmHg
- A-H, H-V and QRS intervals (closed-chest dogs; [2]): did not change
- Sinus node recovery (closed-chest dogs; [2]): did not change
- artrial refractory period (closed-chest dogs; [2]): did not change
- change of QTc (closed-chest dogs; [2]): 13%
- decrease of heart rate (closed-chest dogs; [2]): 8%
- increase of ventricular effective refractory period (closed-chest dogs; [2]): 11%
- increase in dP/dt (Mongrel dogs; 0.002 mg/Kg/min, one additional dog): 20%
- increase of pulse pressure (Mongrel dogs; 0.02 mg/Kg/min (group d)): 18.5 ± 10%
- increase in dP/dt (Mongrel dogs; 0.02 mg/Kg/min, after 35 minutes): 35.8 ± 8.2%
- reduction of calculated peripheral resistance (Mongrel dogs): over 30%
- Stroke volume (SV) (Mongrel dogs; 0.2 mg/Kg/min (Table XIII)): increased significantly
- fall in diastolic arterial pressure (widening in the pulse-pressure, PP) relative to the other three drugs (Mongrel dogs; 0.2 mg/Kg/min (Table XIII)): more than twice as large
- fall of heart rate (HR) (Mongrel dogs; 0.2 mg/Kg/min (Table XIII)): 16-17%
- increase of aortic flow (stroke volume) (Mongrel dogs; 0.2 mg/Kg/min (group c)): 53.6 ± 17.7%
- reduction of heart rate (Mongrel dogs; 0.7 mg/Kg/min): 32 ± 3%
- increase in LV dP/dt (Mongrel dogs; 0.7 mg/Kg/min, after 5 minutes): 35%
- decrease of calculated total peripheral resistance (Mongrel dogs; [3]): 46.8 ± 9.3%
- increase of aortic pulse-pressure (Mongrel dogs; [3]): 125 ± 19%
- increase of peak aortic blood flow (Mongrel dogs; 0.7 mg/Kg/min, after 35 minutes, ascending aorta): 73%
- increase in LV dP/dt (Mongrel dogs; 0.7 mg/Kg/min, at 35 minutes): 43.2 ± 7.0%
- increase in cardiac output (Mongrel dogs; [4]): 75 ± 29%
- increase in stroke volume (calculated by planimetry) (Mongrel dogs; [4]): 169 ± 36%
- fall in heart rate (Mongrel dogs; at the smaller doses): no significant fall in heart rate
- QTc interval (Mongrel dogs; dog, in vivo): overall increase
- P-R interval (Mongrel dogs; i.v. for 60' (0.7 mg/Kg/min), total 42 mg/Kg): does not increase the P-R interval
- QRS complex or interval (Mongrel dogs; over the period of i.v. administration (Fig. XVII)): not increased
- average increase of QTc (Mongrel dogs; when dP/dt is increased by 43%): 16%

Compound: COc1ccc2cc3[n+](cc2c1O)CCc1cc2c(cc1-3)OCO2 [berberrubine]
- myocardial oxygen consumption and myocardial injury (dogs): reduction on myocardial oxygen consumption and less myocardial injury than the control
- antiarrhythmic control after coronary artery occlusion (Sprague-Daley rats): like antiarrhythmic control is observable
- control of endotoxic shock caused by LPS ([1]; dog, in vivo): comparable results
- result when substituted in the electrophysiologic experiments (closed-chest dogs): likewise
- reduction of calculated peripheral resistance (Mongrel dogs): did not show that property to that pronounced degree
- Stroke volume (SV) (Mongrel dogs; 0.2 mg/Kg/min (Table XIII)): just slightly (and not statistically significantly)
- fall of heart rate (HR) (Mongrel dogs; 0.2 mg/Kg/min (Table XIII)): 16-17%

Compound: COc1cc2c(cc1O)C[C@H]1c3cc(O)c(OC)cc3CCN1C2 [coreximine]
- myocardial oxygen consumption and myocardial injury (dogs): reduction on myocardial oxygen consumption and less myocardial injury than the control
- antiarrhythmic control after coronary artery occlusion (Sprague-Daley rats): like antiarrhythmic control is observable
- control of endotoxic shock caused by LPS ([1]; dog, in vivo): comparable results
- result when substituted in the electrophysiologic experiments (closed-chest dogs): comparable results are shown
- reduction of calculated peripheral resistance (Mongrel dogs): did not show that property to that pronounced degree
- Stroke volume (SV) (Mongrel dogs; 0.2 mg/Kg/min (Table XIII)): increased significantly
- fall of heart rate (HR) (Mongrel dogs; 0.2 mg/Kg/min (Table XIII)): 16-17%
